Experimental data taken from patent US5703236A, “Tetrahydrofuran antifungals” (Schering Corporation, priority 1995, dated 1997).

Assays:
Aspergillus = test: conventional broth dilution in vitro antifungal test, Aspergillus; type: cell-based, Aspergillus flavus, fumigatus and other species; settings: 37 strains
Method: (§1) The in vitro antifungal activity tests were performed via conventional broth dilution methods in Sabouraud dextrose broth ("SDB") medium and Eagles Minimum Essential Medium ("EMEM") against a large number of fungi. Minimum Inhibitory Concentrations ("MICs") were measured after 24, 48 and 72 hour tests. In many cases, Minimum Fungicidial Concentrations ("MFCS") were measured after 48 and 72 hours.

Candida albicans = test: conventional broth dilution in vitro antifungal test, Candida albicans; type: cell-based; settings: 26 strains; for PERCENTAGE OF STRAINS WITH MICs ≤ 1 MCG/ML: Table Q; for percentage of strains with MFCs ≤ 1 mcg/mL: Table R (MFCs)
Method: as §1

Candida krusei = test: conventional broth dilution in vitro antifungal test, Candida krusei; type: cell-based; settings: 16 strains
Method: as §1

[1] = tested on: Candida tropicalis & stellatoidea; test: conventional broth dilution in vitro antifungal test, Candida tropicalis & stellatoidea; type: cell-based; settings: 5 strains
Method: as §1

Candida glabrata = test: conventional broth dilution in vitro antifungal test, Candida glabrata; type: cell-based; settings: 9 strains; for PERCENTAGE OF STRAINS WITH MICs ≤ 1 MCG/ML: Table Q; for percentage of strains with MFCs ≤ 1 mcg/mL: Table R (MFCs)
Method: as §1

Cryptococcus neoformans = test: conventional broth dilution in vitro antifungal test, Cryptococcus neoformans; type: cell-based; settings: 3 strains; for MIC 90: Table S
Method: as §1

Dermatophytes = test: conventional broth dilution in vitro antifungal test, dermatophytes; type: cell-based, T. rubrum, T. mentagrophytes, and T. tonsurans; settings: 6 strains
[2] = serum levels, half lives and tissue distribution following oral dosing; type: in vivo; settings: mice, rats, dogs and monkeys, methyl cellulose formulation
[3] = tested on: cytochrome P-450 liver drug metabolizing enzymes; test: induction of cytochrome P-450 liver drug metabolizing enzymes, in vivo rat model; settings: oral administration

Compound	PERCENTAGE OF STRAINS WITH MICs ≤ 1 MCG/ML (Aspergillus; Table Q) [%]	PERCENTAGE OF STRAINS WITH MICs ≤ 1 MCG/ML (Aspergillus; Table R (MFCs)) [%]	PERCENTAGE OF STRAINS WITH MICs ≤ 1 MCG/ML (Candida albicans) [%]	percentage of strains with MFCs ≤ 1 mcg/mL (Candida albicans) [%]	PERCENTAGE OF STRAINS WITH MICs ≤ 1 MCG/ML (Candida krusei; Table Q) [%]	PERCENTAGE OF STRAINS WITH MICs ≤ 1 MCG/ML (Candida krusei; Table R (MFCs)) [%]	PERCENTAGE OF STRAINS WITH MICs ≤ 1 MCG/ML ([1]; Table Q) [%]	PERCENTAGE OF STRAINS WITH MICs ≤ 1 MCG/ML ([1]; Table R (MFCs)) [%]	PERCENTAGE OF STRAINS WITH MICs ≤ 1 MCG/ML (Candida glabrata) [%]	percentage of strains with MFCs ≤ 1 mcg/mL (Candida glabrata) [%]	PERCENTAGE OF STRAINS WITH MICs ≤ 1 MCG/ML (Cryptococcus neoformans; Table Q) [%]	PERCENTAGE OF STRAINS WITH MICs ≤ 1 MCG/ML (Cryptococcus neoformans; Table R (MFCs)) [%]	MIC 90 (Cryptococcus neoformans)	PERCENTAGE OF STRAINS WITH MICs ≤ 1 MCG/ML (Dermatophytes; Table Q) [%]	PERCENTAGE OF STRAINS WITH MICs ≤ 1 MCG/ML (Dermatophytes; Table R (MFCs)) [%]	serum levels compared to azoles of similar structure [2]	induction of cytochrome P-450 liver drug metabolizing enzymes [3]
CCC(C(C)O)n1ncn(-c2ccc(N3CCN(c4ccc(OCC5COC(Cn6cncn6)(c6ccc(F)cc6F)C5)cc4)CC3)cc2)c1=O (centres unmarked) [drawing 29]	100	50	100	100	100	88	100	100	22	22	100	100	.05 MCG/ML	100	67		
CCC(C(C)O)n1ncn(-c2ccc(N3CCN(c4ccc(OCC5COC(Cn6cncn6)(c6ccc(F)cc6F)C5)cc4)CC3)cc2)c1=O (centres unmarked) [drawing 28]																consistently higher serum levels	not inducers of various cytochrome P-450 liver drug metabolizing enzymes
OC(Cn1cncn1)(Cn1cncn1)c1ccc(F)cc1F [FLZ, fluconazole, reference compound]		0		100		0		100		0		0			0		
CCC(C(C)O)n1ncn(-c2ccc(N3CCN(c4ccc(OCC5COC(Cn6cncn6)(c6ccc(F)cc6F)C5)cc4)CC3)cc2)c1=O (centres unmarked) [drawing 30]	100	62	100	100	100	94	100	100	22	22	100	100	.007 MCG/ML	100	83		
CCC(C(C)O)n1ncn(-c2ccc(N3CCN(c4ccc(OCC5COC(Cn6cncn6)(c6ccc(F)cc6F)C5)cc4)CC3)cc2)c1=O (centres unmarked) [drawing 31]	100	89	100	100	100	100	100	100	33	22	100	100		100	100		
